Source: patent US11787855B2, “Egg, fertilized egg, or embryo quality improving agent” (MPO, INC., priority 2016, dated 2023)

Assays:
[1] = tested on: blastocysts of young mice transplanted into pseudopregnant mice; experiment: Embryo transplantation of young mouse blastocysts obtained with added CXCL5 into pseudopregnant mice; type: in vivo
From the text: After culturing for 4 days, an embryo reaching a blastocyst stage embryo was transplanted. Recipient mice were ICR female mice of 6 to 10 weeks of age, and mated with ICR male mice vasoligated on the day before a harvesting day, and an individual whose vaginal plug could be confirmed the next day was used. General anesthesia was given with somnopentyl anesthetic, and the uterus was exposed by a back dorsal incision. The uterus was fixed with tweezers, a 30 G injection needle (Dentronics, Tokyo, Japan) was drilled at an oviduct joint, a glass capillary with blastocyst aspirated was inserted, and the embryo was transplanted into the uterus. After transplantation, the uterus was carefully returned to the body, and the retroperitoneum and the skin were sutured. At the time of transplantation, blastocysts obtained from mice of each group were transplanted into recipient mice for each individual. Cesarean section was carried out on the 19th day with the next day of egg collection as the first day. Recipient mice were euthanized and underwent laparotomy, and the uterus was extracted and the fetus was removed. Implantation rate was calculated as the number of implantation traces/the number of embryo transplantations, and the offspring acquisition rate was calculated as the litter size/the number of implantation traces.
Based on the method described in Example 2, blastocysts of the control group and the drug treated group were transplanted into pseudopregnant mice. The implantation rate and the offspring acquisition rate were then calculated.

[2] = tested on: fertilized eggs of young mice; experiment: In vitro culture of young mouse embryo with added CXCL5, blastocyst reaching rate; type: cell-based; details: vs non-added control group (FIG. 5)
Protocol: Mice past 3 weeks and 42 weeks of age confirmed the sexual cycle by vaginal smear. 10 IU of gonadotropin (ASKA Pharmaceutical. Co., Tokyo, Japan) was intraperitoneally administered at the time of proestrus. Cumulus oocyte complexes (COCs) were collected from a fallopian tube 15 hours after administration, and precultured for 30 minutes in 100 μl TYH medium (LSI Medience corporation, Tokyo, Japan). Meanwhile, ICR male mice (10-12 weeks old) were subjected to general anesthesia with somnopentyl anesthetic (Kyoritsuseiyaku Corporation, Tokyo, Japan), and cauda epididymis was extracted. A portion of the cauda epididymis was incised, and the internal sperm was extruded and collected. […] After culturing, the sperm was removed from the egg in 30 μl KSOM Medium (Merck Millipore, Darmstadt, Germany), and the number of 2 cell stage embryos was calculated at that time. […] The blastocyst reaching rate was calculated as the number of blastocysts/the number of two cell stage embryos.
In the in vitro culture system of young mouse embryo, whether or not there was a change in blastocyst reaching rate, implantation rate, offspring acquisition rate by adding the candidate factor was examined using a similar method to Example 2. Expression in the embryos of aging markers p16, p21, p53, PAI-1, and IL-6 was measured, and whether or not cell aging was induced was investigated. […]

[3] = tested on: aging markers (p16, p21, p53, PAI-1, IL-6) in young mouse embryos; experiment: Expression levels of aging markers in embryos by Realtime RT-PCR; type: cell-based; details: embryos to which CXCL5 was added (n=30)
Protocol: In the in vitro culture system of young mouse embryo, whether or not there was a change in blastocyst reaching rate, implantation rate, offspring acquisition rate by adding the candidate factor was examined using a similar method to Example 2. Expression in the embryos of aging markers p16, p21, p53, PAI-1, and IL-6 was measured, and whether or not cell aging was induced was investigated. Specifically, the experiment was carried out as follows.
Expression levels of aging markers (p16, p21, p53, PAI-1, IL-6) in embryos to which CXCL5 was added (n=30) were measured using Realtime RT-PCR.

[4] = tested on: blastocysts of aged mice transplanted into pseudopregnant mice; experiment: Embryo transplantation of aged mouse blastocysts into pseudopregnant mice, implantation rate and offspring acquisition rate; type: in vivo; details: only antagonist 10 nM added (FIG. 4)
Protocol: (§1) Ovulated mature eggs were collected from 42-week-old aged mice and subjected to in vitro fertilization, the obtained fertilized egg (zygote) was in vitro cultured using a culture medium to which a neutralizing antibody of a candidate factor or an antagonist of a specific receptor was added, and the blastocyst reaching rate was determined in order to verify embryo development ability. The obtained blastocysts were embryo transplanted into pseudopregnant mice, for which the implantation rate and the offspring acquisition rate were examined, and the quality of embryos was further evaluated. Specifically, the experiment was carried out as follows.
After culturing for 4 days, an embryo reaching a blastocyst stage embryo was transplanted. Recipient mice were ICR female mice of 6 to 10 weeks of age, and mated with ICR male mice vasoligated on the day before a harvesting day, and an individual whose vaginal plug could be confirmed the next day was used. General anesthesia was given with somnopentyl anesthetic, and the uterus was exposed by a back dorsal incision. […] Implantation rate was calculated as the number of implantation traces/the number of embryo transplantations, and the offspring acquisition rate was calculated as the litter size/the number of implantation traces.

[5] = tested on: fertilized eggs of aged mice; experiment: In vitro culture of aged mouse embryo, blastocyst reaching rate; type: cell-based; details: fertilized eggs of 42-week-old aged mice, different concentrations, cultured 4 days, control group vs drug treated group (FIG. 2)
Protocol: as §1
ICR female mice (CLEA Japan, Inc., Tokyo, Japan) were used as laboratory animals. The mice were bred at a room temperature of 22° C. and a humidity of 55% under light and dark environments every 12 hours. MF control diet (Oriental Yeast Co., ltd., Tokyo, Japan) was given 6 g per mouse per day. Water was allowed to be freely ingested at any time. […]
Mice past 3 weeks and 42 weeks of age confirmed the sexual cycle by vaginal smear. […] After culturing, the sperm was removed from the egg in 30 μl KSOM Medium (Merck Millipore, Darmstadt, Germany), and the number of 2 cell stage embryos was calculated at that time. […] The blastocyst reaching rate was calculated as the number of blastocysts/the number of two cell stage embryos.

[6] = T-test *P<0.05 vs control (FIG. 7)
[7] = heat-denatured CXCL5 1,000 nM vs control group

## CXCL5: CXCL5 (ab9803, abcam), a chemokine, added to young mouse embryo culture
[1]; CXCL5-added group vs control group (FIG. 6)
  offspring acquisition rate: no significant difference
[1]; CXCL5-added group vs control, *P<0.05 (FIG. 6)
  implantation rate: decreased
[1]; CXCL5 added at 1,000 nM vs non-addition control group (FIG. 6)
  implantation rate: a significant difference was observed
[2]; CXCL5 100 nM, 300 nM, 1,000 nM, cultured 4 days
  blastocyst reaching rate: not significantly different
[3]; [6]
  expression level of IL-6: significant increase
  expression level of PAI-1: significant increase
  expression level of p21: significant increase
  expression level of p53: significant increase
[3]; vs control
  expression level of p16: no significant difference

## heat-denatured CXCL5: CXCL5 (ab9803, abcam) heat-denatured (95° C., 5 min), used at 1,000 nM
[1]; [7]
  implantation rate: no significant difference
  offspring acquisition rate: no significant difference
[2]; heat-denatured (95° C., 5 min) CXCL5 1,000 nM
  blastocyst reaching rate: not significantly different

## O=C(Nc1ccc([N+](=O)[O-])cc1O)Nc1ccccc1Br [antagonist, SB225002]
[4]
  implantation rate: tended to be higher
  offspring acquisition rate: tended to be higher
[5]
  blastocyst reaching rate: no significant difference
